This is an account of results in US11173151B2, “Substituted triazole derivatives and uses thereof” (BAYER AKTIENGESELLSCHAFT, priority 2017, dated 2021).

One experiment concerns the target T1, human V2 receptor (Homo sapiens, UniProt P30518).
T1 construct: expressed in transfected cells; host or cells: CHO K1 (ATCC) expressing firefly luciferase under a CRE-responsive promoter
Description: Cellular in vitro assay for determining vasopressin receptor activity, V2 receptor cell line (CHO, CRE-luciferase). It is filed as cell-based. The following applies: CHO cell line transfected with human V2 receptor; [Arg8]-vasopressin at EC50 concentration; read-out: IC50 hV2.

The next experiment concerns the target T2, human V1a receptor (Homo sapiens, UniProt P37288).
T2 construct: expressed in transfected cells; host or cells: CHO K1 (ATCC), also stably transfected with a modified aequorin
Description: Cellular in vitro assay for determining vasopressin receptor activity, V1a receptor cell line (CHO, aequorin luminescence). It is filed as cell-based. The conditions noted are these: for IC50: CHO cell line transfected with human V1a receptor, [Arg]-vasopressin at EC50 concentration, read-out: IC50 hV1a; for ratio IC50 hV2/hV1a: selectivity ratio IC50 hV2 / IC50 hV1a. The method, boiled down:
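Antagonism is measured in stable CHO K1 transfectants coexpressing the Gαq-coupled receptor and a calcium-sensitive aequorin photoprotein. Agonist challenge uses [Arg]-vasopressin at EC50 after a 10-minute compound exposure; IC50 values come from the luminescence signal.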

T2 sequence (P37288 whole entry): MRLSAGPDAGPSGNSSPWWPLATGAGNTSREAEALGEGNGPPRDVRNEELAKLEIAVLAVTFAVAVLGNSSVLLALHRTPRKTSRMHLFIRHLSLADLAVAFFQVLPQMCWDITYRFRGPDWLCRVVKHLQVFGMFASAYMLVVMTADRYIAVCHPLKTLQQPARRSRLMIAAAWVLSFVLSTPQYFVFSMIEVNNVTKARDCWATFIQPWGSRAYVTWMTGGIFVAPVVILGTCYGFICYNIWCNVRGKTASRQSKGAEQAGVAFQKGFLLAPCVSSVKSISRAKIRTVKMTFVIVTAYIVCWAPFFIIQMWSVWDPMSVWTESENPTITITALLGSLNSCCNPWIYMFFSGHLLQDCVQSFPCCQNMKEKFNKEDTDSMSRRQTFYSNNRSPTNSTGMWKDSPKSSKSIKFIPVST
T1 sequence (P30518 whole entry): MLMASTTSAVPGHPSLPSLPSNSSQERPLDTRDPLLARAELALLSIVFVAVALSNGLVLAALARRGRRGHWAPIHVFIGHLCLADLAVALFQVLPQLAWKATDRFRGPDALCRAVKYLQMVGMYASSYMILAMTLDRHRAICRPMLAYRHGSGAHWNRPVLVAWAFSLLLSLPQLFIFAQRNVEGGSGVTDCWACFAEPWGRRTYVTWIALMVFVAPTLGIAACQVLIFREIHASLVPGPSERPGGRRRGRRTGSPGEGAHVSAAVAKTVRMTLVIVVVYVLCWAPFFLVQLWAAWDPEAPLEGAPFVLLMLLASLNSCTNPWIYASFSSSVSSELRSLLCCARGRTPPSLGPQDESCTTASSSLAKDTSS

For `O=C(c1ncccc1-n1cnc(Cn2nc(-c3ccc(Cl)cc3)n(C[C@@H](O)C(F)(F)F)c2=O)n1)N1CCOCC1` [Example 472, 5-(4-Chlorophenyl)-2-({1-[2-(morpholin-4-ylcarbonyl)pyridin-3-yl]-1H-1,2,4-triazol-3-yl}methyl)-4-[(2R)-3,3,3-trifluoro-2-hydroxypropyl]-2,4-dihydro-3H-1,2,4-triazol-3-one], the IC50 at human V2 receptor came to 66000 nM; at human V1a receptor, 320 nM. The “ratio IC50 hV2/hV1a” value at human V1a receptor is given as 206.3.

With `O=C(NC1(C(F)(F)F)CC1)c1ncccc1-n1cnc(Cn2nc(-c3ccc(Cl)cc3)n(C[C@@H](O)C(F)(F)F)c2=O)n1` [Example 473, 3-[3-({3-(4-Chlorophenyl)-5-oxo-4-[(2R)-3,3,3-trifluoro-2-hydroxypropyl]-4,5-dihydro-1H-1,2,4-triazol-1-yl}methyl)-1H-1,2,4-triazol-1-yl]-N-[1-(trifluoromethyl)cyclopropyl]pyridine-2-carboxamide], the IC50 on human V2 receptor amounted to 1800 nM; on human V1a receptor it was 92 nM. Further, the “ratio IC50 hV2/hV1a” value on human V1a receptor was found to be 19.6.

`CC1(C)COCCN1C(=O)c1ncccc1-n1cnc(Cn2nc(-c3ccc(Cl)cc3)n(C[C@H](O)C(F)(F)F)c2=O)n1` [Example 474, 5-(4-Chlorophenyl)-2-[(1-{2-[(3,3-dimethylmorpholin-4-yl)carbonyl]pyridin-3-yl}-1H-1,2,4-triazol-3-yl)methyl]-4-[(2S)-3,3,3-trifluoro-2-hydroxypropyl]-2,4-dihydro-3H-1,2,4-triazol-3-one]: the half-maximal inhibitory concentration (IC50) on human V2 receptor is 22500 nM. In addition, at human V1a receptor, the IC50 was 24 nM and the “ratio IC50 hV2/hV1a” value is given as 937.5.

On to `CC1(C)COCCN1C(=O)c1ncccc1-n1cnc(Cn2nc(-c3ccc(Cl)cc3)n(C[C@@H](O)C(F)(F)F)c2=O)n1` [Example 475, 5-(4-Chlorophenyl)-2-[(1-{2-[(3,3-dimethylmorpholin-4-yl)carbonyl]pyridin-3-yl}-1H-1,2,4-triazol-3-yl)methyl]-4-[(2R)-3,3,3-trifluoro-2-hydroxypropyl]-2,4-dihydro-3H-1,2,4-triazol-3-one], for which the concentration for half-maximal inhibition (IC50) at human V2 receptor was determined as 66000 nM. At human V1a receptor, the IC50 stood at 90 nM and the “ratio IC50 hV2/hV1a” value is recorded as 733.3.

As to `O=C(c1ncccc1-n1cnc(Cn2nc(-c3ccc(Cl)cc3)n(C[C@@H](O)C(F)(F)F)c2=O)n1)N1CCC[C@H]1C(F)(F)F` [Example 477, 5-(4-Chlorophenyl)-4-[(2R)-3,3,3-trifluoro-2-hydroxypropyl]-2-{[1-(2-{[(2S)-2-(trifluoromethyl)pyrrolidin-1-yl]carbonyl}pyridin-3-yl)-1H-1,2,4-triazol-3-yl]methyl}-2,4-dihydro-3H-1,2,4-triazol-3-one], the IC50 on human V2 receptor is 11000 nM. For the same compound, on human V1a receptor, the IC50 is 460 nM and the “ratio IC50 hV2/hV1a” value was found to be 23.9.

`O=C(c1ncccc1-n1cnc(Cn2nc(-c3ccc(Cl)cc3)n(C[C@@H](O)C(F)(F)F)c2=O)n1)N1CCC[C@@H]1C(F)(F)F` [Example 478, 5-(4-Chlorophenyl)-4-[(2R)-3,3,3-trifluoro-2-hydroxypropyl]-2-{[1-(2-{[(2R)-2-(trifluoromethyl)pyrrolidin-1-yl]carbonyl}pyridin-3-yl)-1H-1,2,4-triazol-3-yl]methyl}-2,4-dihydro-3H-1,2,4-triazol-3-one]: the IC50 on human V2 receptor is 7800 nM. Besides, on human V1a receptor, the half-inhibitory concentration (IC50) was found to be 290 nM and the “ratio IC50 hV2/hV1a” value turned out to be 26.9.

Turning to `O=C(c1ncccc1-n1cnc(Cn2nc(-c3ccc(Cl)cc3)n(C[C@@H](O)C(F)(F)F)c2=O)n1)N1CCS(=O)(=O)CC1` [Example 479, 5-(4-Chlorophenyl)-2-[(1-{2-[(1,1-dioxidothiomorpholin-4-yl)carbonyl]pyridin-3-yl}-1H-1,2,4-triazol-3-yl)methyl]-4-[(2R)-3,3,3-trifluoro-2-hydroxypropyl]-2,4-dihydro-3H-1,2,4-triazol-3-one], the half-maximal inhibitory concentration (IC50) on human V2 receptor was 32000 nM. On human V1a receptor, the IC50 worked out at 1400 nM and the “ratio IC50 hV2/hV1a” value is listed as 22.9.

With `CN(CC1CC1)C(=O)c1ncccc1-n1cnc(Cn2nc(-c3ccc(Cl)cc3)n(C[C@@H](O)C(F)(F)F)c2=O)n1` [Example 482, 3-[3-({3-(4-Chlorophenyl)-5-oxo-4-[(2R)-3,3,3-trifluoro-2-hydroxypropyl]-4,5-dihydro-1H-1,2,4-triazol-1-yl}methyl)-1H-1,2,4-triazol-1-yl]-N-(cyclopropylmethyl)-N-methylpyridine-2-carboxamide], the IC50 at human V2 receptor came out at 32000 nM. On human V1a receptor, the IC50 stood at 99 nM and the “ratio IC50 hV2/hV1a” value came to 323.2.

As to `CC1(NC(=O)c2ncccc2-n2cnc(Cn3nc(-c4ccc(Cl)cc4)n(C[C@@H](O)C(F)(F)F)c3=O)n2)CC1` [Example 483, 3-[3-({3-(4-Chlorophenyl)-5-oxo-4-[(2R)-3,3,3-trifluoro-2-hydroxypropyl]-4,5-dihydro-1H-1,2,4-triazol-1-yl}methyl)-1H-1,2,4-triazol-1-yl]-N-(1-methylcyclopropyl)pyridine-2-carboxamide], the half-maximal inhibitory concentration (IC50) was 3950 nM on human V2 receptor and 37 nM at human V1a receptor. In addition, the “ratio IC50 hV2/hV1a” value on human V1a receptor was found to be 106.8.

On to `NC(=O)[C@H]1CC(F)(F)CN1C(=O)c1ncccc1-n1cnc(Cn2nc(-c3ccc(Cl)cc3)n(C[C@@H](O)C(F)(F)F)c2=O)n1` [Example 486, 1-({3-[3-({3-(4-Chlorophenyl)-5-oxo-4-[(2R)-3,3,3-trifluoro-2-hydroxypropyl]-4,5-dihydro-1H-1,2,4-triazol-1-yl}methyl)-1H-1,2,4-triazol-1-yl]pyridin-2-yl}carbonyl)-4,4-difluoro-D-prolinamide], for which the IC50 at human V2 receptor is 32000 nM. For the same compound, at human V1a receptor, the half-inhibitory concentration (IC50) was found to be 110 nM and the “ratio IC50 hV2/hV1a” value worked out at 290.9.

Take `O=C(NC1CC1)c1ccncc1-n1cnc(Cn2nc(-c3ccc(Cl)cc3)n(C[C@H](O)C(F)(F)F)c2=O)n1` [Example 488, 3-[3-({3-(4-chlorophenyl)-5-oxo-4-[(2S)-3,3,3-trifluoro-2-hydroxypropyl]-4,5-dihydro-1H-1,2,4-triazol-1-yl}methyl)-1H-1,2,4-triazol-1-yl]-N-cyclopropylpyridine-4-carboxamide]: at human V2 receptor, the IC50 came to 2000 nM. For the same compound, on human V1a receptor, the IC50 was determined as 29 nM and the “ratio IC50 hV2/hV1a” value came to 69.0.

On to `O=C(NCC(F)(F)F)c1ccncc1-n1cnc(Cn2nc(-c3ccc(Cl)cc3)n(C[C@H](O)C(F)(F)F)c2=O)n1` [Example 489, 3-[3-({3-(4-chlorophenyl)-5-oxo-4-[(2S)-3,3,3-trifluoro-2-hydroxypropyl]-4,5-dihydro-1H-1,2,4-triazol-1-yl}methyl)-1H-1,2,4-triazol-1-yl]-N-(2,2,2-trifluoroethyl)pyridine-4-carboxamide], for which the IC50 at human V2 receptor turned out to be 1700 nM. Also, on human V1a receptor, the IC50 came out at 50 nM and the “ratio IC50 hV2/hV1a” value came to 34.0.

`O=C(N[C@@H]1C[C@@H]1F)c1ccncc1-n1cnc(Cn2nc(-c3ccc(Cl)cc3)n(C[C@H](O)C(F)(F)F)c2=O)n1` [Example 490, 3-[3-({3-(4-Chlorophenyl)-5-oxo-4-[(2S)-3,3,3-trifluoro-2-hydroxypropyl]-4,5-dihydro-1H-1,2,4-triazol-1-yl}methyl)-1H-1,2,4-triazol-1-yl]-N-[(1R,2S)-2-fluorocyclopropyl]pyridine-4-carboxamide]: the IC50 on human V2 receptor came to 380 nM. Moreover, on human V1a receptor, the IC50 is 16 nM and the “ratio IC50 hV2/hV1a” value is recorded as 23.8.

With `O=C(NCCC(F)(F)F)c1ccncc1-n1cnc(Cn2nc(-c3ccc(Cl)cc3)n(C[C@H](O)C(F)(F)F)c2=O)n1` [Example 491, 3-[3-({3-(4-Chlorophenyl)-5-oxo-4-[(2S)-3,3,3-trifluoro-2-hydroxypropyl]-4,5-dihydro-1H-1,2,4-triazol-1-yl}methyl)-1H-1,2,4-triazol-1-yl]-N-(3,3,3-trifluoropropyl)pyridine-4-carboxamide], the results for the IC50 at human V2 receptor and on human V1a receptor were 1300 nM and 21 nM, respectively. The “ratio IC50 hV2/hV1a” value at human V1a receptor was 61.9.

With `CC1(NC(=O)c2ccncc2-n2cnc(Cn3nc(-c4ccc(Cl)cc4)n(C[C@H](O)C(F)(F)F)c3=O)n2)CC1` [Example 492, 3-[3-({3-(4-Chlorophenyl)-5-oxo-4-[(2S)-3,3,3-trifluoro-2-hydroxypropyl]-4,5-dihydro-1H-1,2,4-triazol-1-yl}methyl)-1H-1,2,4-triazol-1-yl]-N-(1-methylcyclopropyl)pyridine-4-carboxamide], the concentration for half-maximal inhibition (IC50) at human V2 receptor came out at 440 nM. Moreover, at human V1a receptor, the half-inhibitory concentration (IC50) is 1.8 nM and the “ratio IC50 hV2/hV1a” value stood at 244.4.

Regarding `O=C(NCC(F)(F)F)c1cccnc1-n1cnc(Cn2nc(-c3ccc(Cl)cc3)n(C[C@H](O)C(F)(F)F)c2=O)n1` [Example 494, 2-[3-({3-(4-chlorophenyl)-5-oxo-4-[(2S)-3,3,3-trifluoro-2-hydroxypropyl]-4,5-dihydro-1H-1,2,4-triazol-1-yl}methyl)-1H-1,2,4-triazol-1-yl]-N-(2,2,2-trifluoroethyl)pyridine-3-carboxamide], the IC50 on human V2 receptor amounted to 130 nM. At human V1a receptor, the concentration for half-maximal inhibition (IC50) is 24.5 nM and the “ratio IC50 hV2/hV1a” value stood at 5.3.

In the case of `CNC(=O)c1cccnc1-n1cnc(Cn2nc(-c3ccc(Cl)cc3)n(C[C@H](O)C(F)(F)F)c2=O)n1` [Example 495, 2-[3-({3-(4-chlorophenyl)-5-oxo-4-[(2S)-3,3,3-trifluoro-2-hydroxypropyl]-4,5-dihydro-1H-1,2,4-triazol-1-yl}methyl)-1H-1,2,4-triazol-1-yl]-N-methylpyridine-3-carboxamide], the IC50 at human V2 receptor is 520 nM. For the same compound, on human V1a receptor, the IC50 turned out to be 20 nM and the “ratio IC50 hV2/hV1a” value was found to be 26.0.
